The subject of one experiment is laboratory rats. Kind of experiment: Scopolamine induced swimming test (SIS). It counts as in vivo, rat. Particulars: for Reversal of scopolamine-induced swimming hyperactivity: result in words; for minimal effective dose: rat, read-out: Minimal Effective Dose for Reversal of Scopolamine-Induced Swimming Hyperactivity. On the procedure: In the scopolamine induced swimming test (SIS), the ability of representative compounds of the present invention to reverse the hyperactive swimming behavior of laboratory rats given scopolamine was assessed. In this test, untreated rats will generally swim between 20 to 30 meters during a five minute test period. […] The effect of scopolamine is centrally mediated; the ability of a test compound to reverse the hyperactive swimming behavior induced by scopolamine is thus a measure of the central cholinergic activity of the compound.

In experiment [1] the test system is aged humans and non-human primates with decreased cognition. The following applies: result in words; cited from earlier work.
Experiment [2] concerns muscarinic binding site. Kind of experiment: RCMD screening assay: inhibition of radiolabeled cis-methyldioxolane (muscarinic agonist) binding in rat cerebral cortex tissue. The following applies: for % Inhib. RCMD: @ 10^-7 M; for IC50: rat cerebral cortex, radiolabeled cis-methyldioxolane. On the procedure:
Similarly, in the RCMD screening assay, described more fully by T. W. Vickeroy et al., J. Pharmacol. and Exp. Ther., 229 (3): 747 (1984), rat cerebral cortex tissue was treated with radiolabeled cis-methyldioxolane, a known muscarinic binding site agonist. The percent inhibition at given concentrations or concentrations of test compounds required to inhibit 50% of the binding of this muscarinic agonist were then determined.

Experiment [3] has as its system muscarinic binding site. Kind of experiment: RQNB screening assay: inhibition of radiolabeled quinuclidinyl benzilate (muscarinic antagonist) binding in rat cerebral cortex tissue. The following applies: for % Inhib. RQNB: @ 10^-6 M; for IC50: rat cerebral cortex, radiolabeled quinuclidinyl benzilate.
For experiment [4] the following is noted: Davis et al. 1983; cited from earlier work.
Experiment [5] deals with patients clinically diagnosed as having presenile primary degenerative dementia. The following applies: double blind study; Christie et al. 1981; cited from earlier work.
A further experiment deals with male Swiss-Webster mice. Kind of experiment: Antiwrithing (AW) test, acetic acid induced writhing. The format is in vivo. Particulars: ip; intraperitoneal dosing; mouse; acetic acid 0.6%; read-out: ED50 (dose necessary to suppress writhing by 50% relative to vehicle controls). On the procedure:
The antiwrithing (AW) test provides preliminary assessment of compounds with potential analgesic activity. The test is performed with male Swiss-Webster mice. Compounds are administered in aqueous 0.2% methylcellulose or other appropriate vehicles in volumes of 10 ml/kg. Dosages represent active moiety.
Acetic acid (0.6%, 10 ml/kg) is injected intraperitoneally after administration of the compound. writhing movements are counted for five minutes starting seven minutes after the acetic acid injection. Data are expressed as ED50 values, where the ED50 is the dose necessary to suppress writhing by 50% relative to vehicle controls. ED50 values are calculated by nonlinear regression analysis.
(An intraperitoneal irritant provokes the stretching counted in writhing tests.)

Molecules are shown by their SMILES. Read-outs that look alike come from different tables or passages of the source.

On to `CNC(=O)Oc1ccc2c(c1)[C@]1(C)CCN(C)[C@@H]1N2C` [physostigmine, reference compound], for which the “Reversal of scopolamine-induced swimming hyperactivity” value in the experiment with laboratory rats was “can be reversed”. In addition, the “Memory in aged humans and non-human primates with decreased cognition” value in experiment [1] is given as “improved memory”.

Consider `CCCN1CCC=C(C(CCc2ccccc2)=NO)C1` [n-Propyl 3-Phenylmethyl], for which the “% Inhib. RCMD” value with muscarinic binding site [2] was found to be 3%. Also, in the experiment with muscarinic binding site [3], the “% Inhib. RQNB” value is listed as 63%.

Consider `CN1[C@@H]2C[C@@H](OC(=O)[C@H](CO)c3ccccc3)C[C@H]1[C@@H]1O[C@@H]12` [scopolamine, reference compound], for which, in the experiment on laboratory rats (scopolamine 0.1 mg/kg, five minute test period), the “Increase of swimming distance above base-line” value was 75-125%.

For `Nc1ccncc1N` [3,4-diaminopyridine], the Age-related cognitive deficits entry in experiment [4] is on record as “ameliorate age-related cognitive deficits”.

The minimal effective dose is the lowest level tested that produced the effect sought. As to `CN1CCC=C(C(CCc2ccccc2)=NO)C1` [Methyl 3-(CH2 CH2Ph), 3-Phenyl-1-(1,2,5,6-tetrahydro-1-methyl-3-pyridinyl)-1-propanone oxime], the minimal effective dose with laboratory rats (sc, Subcutaneous) is 32 mg/kg.

As to `CCN1CCC=C(C(C)=NO)C1` [Ethyl 3-Methyl, 1-(1-Ethyl-1,2,5,6-tetrahydro-3-pyridinyl)ethanone oxime], the “% Inhib. RCMD” value in the experiment on muscarinic binding site [2] came to 21%. In the experiment with muscarinic binding site [3], the “% Inhib. RQNB” value is reported as 23%.

As for `CCCN1CCC=C(C(CCc2ccccc2)=NO)C1` [n-Propyl 3-(CH2 CH2Ph), 3-Phenyl-1-(1,2,5,6-tetrahydro-1-propyl-3-pyridinyl)-1-propanone oxime], the minimal effective dose with laboratory rats (Oral) turned out to be 3.2 mg/kg.

As for `COC(=O)C1=CCCN(C)C1` [arecoline, methyl ester of 1,2,5,6-tetra-hydro-1-methyl-3-pyridinecarboxylic acid, reference compound], in the experiment on laboratory rats, the “Reversal of scopolamine-induced swimming hyperactivity” value is on record as “can be reversed”. For the same compound, the “Test of picture recognition” value in experiment [5] was “Significant improvement”.

In the case of `CN1CCC=C(C(=NO)c2ccccc2)C1` [Methyl 3-Phenyl, Phenyl(1,2,5,6-tetrahydro-1-methyl-3-pyridinyl)methanone oxime], the “% Inhib. RCMD” value with muscarinic binding site [2] turned out to be 39%. Moreover, the “% Inhib. RQNB” value in the experiment with muscarinic binding site [3] is recorded as 51%.

As a reminder, the IC50 is the concentration that gives 50% inhibition. A higher IC50 goes with a need for much substance. As for `C=CCCC(=NO)C1=CCCN(C)C1` [Methyl 3-(CH2 CH2 CHCH2), 1-(1,2,5,6-Tetrahydro-1-methyl-3-pyridinyl)-4-penten-1-one oxime], the minimal effective dose in the experiment with laboratory rats (sc, Subcutaneous) was determined as 32 mg/kg. In addition, the IC50 is 40 nM on muscarinic binding site [2] and 600 nM at muscarinic binding site [3].

For the compound `CN1CCC=C(C=NO)C1` [Methyl Hydrogen, 1,2,5,6-Tetrahydro-1-methyl-3-pyridinecarboxaldehyde oxime], the minimal effective dose in the experiment with laboratory rats (sc, Subcutaneous) came out at 32 mg/kg. In addition, the “% Inhib. RCMD” value in the experiment on muscarinic binding site [2] is 22%. The “% Inhib. RQNB” value in the experiment on muscarinic binding site [3] came out at 8%.

Turning to `CC(=NO)C1=CCCNC1` [Hydrogen 3-Methyl, 1-(1,2,5,6-Tetrahydro-3-pyridinyl)ethanone oxime], the minimal effective dose in the experiment on laboratory rats (sc, Subcutaneous) stood at 3.2 mg/kg. Moreover, in the experiment on muscarinic binding site [2], the “% Inhib. RCMD” value was found to be 85%. In addition, in the experiment on muscarinic binding site [3], the “% Inhib. RQNB” value turned out to be 24%.

In general, ED50 refers to the midpoint of the dose-response relation. Turning to `CC(=NO)C1=CCCN(C)C1` [Methyl 3-Methyl, 1-(1,2,5,6-Tetrahydro-1-methyl-3-pyridinyl)-ethanone oxime], the ED50 with male Swiss-Webster mice was 1.1 mg/kg. Besides, the minimal effective dose in the experiment on laboratory rats (sc, Subcutaneous) is 3.2 mg/kg. Moreover, the IC50 on muscarinic binding site [2] amounted to 19 nM; on muscarinic binding site [3], 4650 nM.

As to `CN1CCC=C(C(CCc2ccccc2)=NO)C1` [Methyl 3-Phenylmethyl], the “% Inhib. RCMD” value in the experiment with muscarinic binding site [2] is 66%. Besides, the “% Inhib. RQNB” value in the experiment on muscarinic binding site [3] was 86%.

As to `CN1CCC=C(C(COCc2ccccc2)=NO)C1` [Methyl 3-(CH2 OCH2 Ph)], the “% Inhib. RCMD” value with muscarinic binding site [2] was 30%. In addition, the “% Inhib. RQNB” value with muscarinic binding site [3] is recorded as 38%.

Regarding `CC(=NO)C1=CCN(C)CC1` [Methyl 4-Methyl], in the experiment on laboratory rats (sc, Subcutaneous), the minimal effective dose is 3.2 mg/kg. The IC50 at muscarinic binding site [2] came out at 490 nM; on muscarinic binding site [3] it was 10000 nM.

For `CC(C)/C(=N/O)C1=CCCN(C)C1` [Methyl 3-(1-Methylethyl) (syn), 2-Methyl-1-(1,2,5,6-tetrahydro-1-methyl-3-pyridinyl)-1-propanone oxime], the “% Inhib. RCMD” value in the experiment with muscarinic binding site [2] worked out at 43%. For the same compound, the “% Inhib. RQNB” value with muscarinic binding site [3] stood at 35%.

On to `CCC(=NO)C1=CCCN(C)C1` [Methyl 3-Ethyl, 1-(1,2,5,6-Tetrahydro-1-methyl-3-pyridinyl)-1-propanone oxime], for which the minimal effective dose in the experiment with laboratory rats (sc, Subcutaneous) was determined as 32 mg/kg. Also, the IC50 on muscarinic binding site [2] came out at 50 nM; on muscarinic binding site [3], 2000 nM.

Regarding `COCCCC(=NO)C1=CCCN(C)C1` [Methyl 3-(CH2 CH2 CH2 OCH3), 4-Methoxy-1-(1,2,5,6-tetrahydro-1-methyl-3-pyridinyl)-1-butanone Oxime], the minimal effective dose in the experiment on laboratory rats (sc, Subcutaneous) came to 32 mg/kg. The figures for the IC50 on muscarinic binding site [2] and on muscarinic binding site [3] were 30 nM and 2500 nM, respectively.

As to `CC(C)/C(=N\O)C1=CCCN(C)C1` [Methyl 3-(1-Methylethyl) (anti), 2-Methyl-1-(1,2,5,6-tetrahydro-1-methyl-3-pyridinyl)-1-propanone oxime], the “% Inhib. RCMD” value in the experiment with muscarinic binding site [2] came to 10%. Moreover, the “% Inhib. RQNB” value with muscarinic binding site [3] amounted to 10%.

As to `C#CCCC(=NO)C1=CCCN(C)C1` [Methyl 3-(CH2 CH2 C CH)], the values for the IC50 on muscarinic binding site [2] and on muscarinic binding site [3] were 7 nM and 1000 nM, respectively.

`CCCCC(=NO)C1=CCCN(C)C1` [Methyl 3-n-Butyl, 1-(1,2,5,6-Tetrahydro-1-methyl-3-pyridinyl)-1-pentanone oxime]: the minimal effective dose in the experiment with laboratory rats (sc, Subcutaneous) is 32 mg/kg. In addition, the IC50 at muscarinic binding site [2] is 20 nM; on muscarinic binding site [3] it was 300 nM.

The record behind these values is patent publication US4798841A, “Tetrahydropyridine oxime cholinergic agents and method of treatment” (Warner-Lambert Company, priority 1987, dated 1989).
